From patent publication US20240116985A1, “STAPLED PEPTIDES AND METHODS THEREOF” (priority 2020, published 2024) come the findings set out here.

Assay [1] addresses T1, beta-catenin/TCF4 engagement (Homo sapiens, UniProt P35222).
T1 construct: expressed in transfected cells; host or cells: HEK293
T1 sequence (P35222 1-781): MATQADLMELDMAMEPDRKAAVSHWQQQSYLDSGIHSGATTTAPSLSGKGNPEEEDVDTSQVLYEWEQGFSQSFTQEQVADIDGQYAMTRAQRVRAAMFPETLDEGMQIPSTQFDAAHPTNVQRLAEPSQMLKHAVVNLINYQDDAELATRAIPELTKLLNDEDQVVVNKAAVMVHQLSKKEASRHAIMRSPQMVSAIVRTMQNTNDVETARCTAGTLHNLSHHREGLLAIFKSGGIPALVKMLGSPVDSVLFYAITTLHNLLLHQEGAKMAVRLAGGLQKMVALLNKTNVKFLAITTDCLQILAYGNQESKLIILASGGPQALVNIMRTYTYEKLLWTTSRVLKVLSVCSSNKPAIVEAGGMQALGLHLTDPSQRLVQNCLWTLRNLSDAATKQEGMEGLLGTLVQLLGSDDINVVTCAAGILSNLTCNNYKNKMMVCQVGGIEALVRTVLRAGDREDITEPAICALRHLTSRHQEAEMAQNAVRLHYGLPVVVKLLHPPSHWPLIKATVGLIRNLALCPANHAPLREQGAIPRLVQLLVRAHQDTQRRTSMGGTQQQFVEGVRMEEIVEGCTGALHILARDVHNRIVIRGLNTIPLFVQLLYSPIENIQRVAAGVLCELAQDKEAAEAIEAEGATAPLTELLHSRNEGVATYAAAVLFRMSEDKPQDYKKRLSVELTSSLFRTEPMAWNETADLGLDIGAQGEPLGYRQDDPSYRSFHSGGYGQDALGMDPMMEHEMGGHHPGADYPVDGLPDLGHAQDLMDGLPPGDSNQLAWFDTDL
Nature of the assay: Nano-BRET target engagement assay (B-cat-Halo & TCF4-Luc in HEK293 cells). Conditions: absolute IC50; read-out: NanoBRET Abs IC50. It counts as cell-based. (Bioluminescence resonance energy transfer reports proximity on the nanometre scale.)

The target in assay [2] is T2, full-length beta-Catenin (Uniprot ID P35222) (Homo sapiens, UniProt P35222).
T2 construct: 10 nM full-length beta-Catenin (Uniprot ID P35222)
T2 sequence (P35222 1-781): T1 sequence (P35222 1-781)
Nature of the assay: Fluorescence polarization IC50 (beta-catenin / 5FAM-TCF4 10-53 competition). It counts as binding. Conditions: fluorescence polarization; read-out: beta-Catenin FP IC50. (In general: In fluorescence polarisation assays a small probe gives low polarisation when free and higher when bound to something large.)

SMILES strings stand for the structures. pIC50: −log10 of the molar value. Bounds are passed on as bounds.

Take `CC(=O)N1CCC[C@]12CC=CCCCC1(CCCC=CCCCOC(=O)N3CC[C@@](C(=O)N[C@@H](Cc4ccsc4)C(=O)N[C@@H](Cc4csc5ccccc45)C(=O)N[C@@H](CCC(N)=O)C(N)=O)(C3)NC(=O)[C@H](CC(C)C)NC(=O)[C@H](Cc3ccccc3)NC(=O)[C@H](C)NC(=O)[C@H](C)NC(=O)[C@H](CN(CC(=O)O)C(=O)CCCN(C)C)NC(=O)[C@H](CC(=O)O)NC1=O)NC(=O)[C@H](CC(C)(C)C)NC(=O)[C@H](CC(=O)O)NC2=O` (stereo partly drawn) [I-2233, Ac-PL3-Asp-Npg-B5-Asp-[NdiMeButC]GA-Ala-Ala-Phe-Leu-PyrS2-3Thi-BztA-Gln-NH2]: the pIC50 is less than 4.70 in assay [1] and 7.85 in assay [2].
For `CC(=O)N1CCC[C@]12CC=CCCCC1(CCCC=CCCCOC(=O)N3CC[C@@](C(=O)N[C@@H](Cc4ccsc4)C(=O)N[C@@H](Cc4csc5ccccc45)C(=O)N[C@@H](CCC(N)=O)C(N)=O)(C3)NC(=O)[C@H](CC(C)C)NC(=O)[C@H](Cc3ccccc3)NC(=O)[C@H](C)NC(=O)[C@H](C)NC(=O)[C@H](CN(CC(=O)O)C(=O)CCN(C)C)NC(=O)[C@H](CC(=O)O)NC1=O)NC(=O)[C@H](CC(C)(C)C)NC(=O)[C@H](CC(=O)O)NC2=O` (stereo partly drawn) [I-2234, Ac-PL3-Asp-Npg-B5-Asp-[Me2NPr]GA-Ala-Ala-Phe-Leu-PyrS2-3Thi-BztA-Gln-NH2] the same measures were less than 4.70 and 7.66.
On the same counts, the results for `CC(=O)N1CCC[C@]12CC=CCCCC1(CCCC=CCCCOC(=O)N3CC[C@@](C(=O)N[C@@H](Cc4ccsc4)C(=O)N[C@@H](Cc4csc5ccccc45)C(=O)N[C@@H](CCC(N)=O)C(N)=O)(C3)NC(=O)[C@H](CC(C)C)NC(=O)[C@H](Cc3ccccc3)NC(=O)[C@H](C)NC(=O)[C@H](C)NC(=O)[C@H](CN(CC(=O)O)C(=O)C3CCN(C)CC3)NC(=O)[C@H](CC(=O)O)NC1=O)NC(=O)[C@H](CC(C)(C)C)NC(=O)[C@H](CC(=O)O)NC2=O` (stereo partly drawn) [I-2235, Ac-PL3-Asp-Npg-B5-Asp-[4AcMePip]GA-Ala-Ala-Phe-Leu-PyrS2-3Thi-BztA-Gln-NH2] are less than 4.70 and 7.40.
On the same counts, the results for `CC(=O)N1CCC[C@]12CC=CCCCC1(CCCC=CCCCOC(=O)N3CC[C@@](C(=O)N[C@@H](Cc4ccsc4)C(=O)N[C@@H](Cc4csc5ccccc45)C(=O)N[C@@H](CCC(N)=O)C(N)=O)(C3)NC(=O)[C@H](CC(C)C)NC(=O)[C@H](Cc3ccccc3)NC(=O)[C@H](C)NC(=O)[C@H](C)NC(=O)[C@H](CN(CC(=O)O)C(=O)Cc3ccc(C(F)(F)F)cc3)NC(=O)[C@H](CC(=O)O)NC1=O)NC(=O)[C@H](CC(C)(C)C)NC(=O)[C@H](CC(=O)O)NC2=O` (stereo partly drawn) [I-2236, Ac-PL3-Asp-Npg-B5-Asp-[4CF3PhAc]GA-Ala-Ala-Phe-Leu-PyrS2-3Thi-BztA-Gln-NH2] are 4.82 and 7.64.
In the case of `CC(=O)N1CCC[C@]12CC=CCCCC1(CCCC=CCCCOC(=O)N3CC[C@@](C(=O)N[C@@H](Cc4ccsc4)C(=O)N[C@@H](Cc4csc5ccccc45)C(=O)N[C@@H](CCC(N)=O)C(N)=O)(C3)NC(=O)[C@H](CC(C)C)NC(=O)[C@H](Cc3ccccc3)NC(=O)[C@H](C)NC(=O)[C@H](C)NC(=O)[C@H](CN(CC(=O)O)C(=O)c3ccccn3)NC(=O)[C@H](CC(=O)O)NC1=O)NC(=O)[C@H](CC(C)(C)C)NC(=O)[C@H](CC(=O)O)NC2=O` (stereo partly drawn) [I-2237, Ac-PL3-Asp-Npg-B5-Asp-[Pic]GA-Ala-Ala-Phe-Leu-PyrS2-3Thi-BztA-Gln-NH2], the pIC50 is 4.61 in assay [1] and 8.30 in assay [2].
On the same counts, the results for `CC(=O)N1CCC[C@]12CC=CCCCC1(CCCC=CCCCOC(=O)N3CC[C@@](C(=O)N[C@@H](Cc4ccsc4)C(=O)N[C@@H](Cc4csc5ccccc45)C(=O)N[C@@H](CCC(N)=O)C(N)=O)(C3)NC(=O)[C@H](CC(C)C)NC(=O)[C@H](Cc3ccccc3)NC(=O)[C@H](C)NC(=O)[C@H](C)NC(=O)[C@H](CN(CC(=O)O)C(=O)CN3CCOCC3)NC(=O)[C@H](CC(=O)O)NC1=O)NC(=O)[C@H](CC(C)(C)C)NC(=O)[C@H](CC(=O)O)NC2=O` (stereo partly drawn) [I-2239, Ac-PL3-Asp-Npg-B5-Asp-[MorphAc]GA-Ala-Ala-Phe-Leu-PyrS2-3Thi-BztA-Gln-NH2] are 4.50 and 8.00.
On the same counts, the results for `CC(=O)N1CCC[C@]12CC=CCCCC1(CCCC=CCCCOC(=O)N3CC[C@@](C(=O)N[C@@H](Cc4ccsc4)C(=O)N[C@@H](Cc4csc5ccccc45)C(=O)N[C@@H](CCC(N)=O)C(N)=O)(C3)NC(=O)[C@H](CC(C)C)NC(=O)[C@H](Cc3ccccc3)NC(=O)[C@H](C)NC(=O)[C@H](C)NC(=O)[C@H](CN(CC(=O)O)C(=O)CN3CCN(C)CC3)NC(=O)[C@H](CC(=O)O)NC1=O)NC(=O)[C@H](CC(C)(C)C)NC(=O)[C@H](CC(=O)O)NC2=O` (stereo partly drawn) [I-2240, Ac-PL3-Asp-Npg-B5-Asp-[MePipAc]GA-Ala-Ala-Phe-Leu-PyrS2-3Thi-BztA-Gln-NH2] are less than 4.70 and 8.30.
With `CC(=O)N1CCC[C@]12CC=CCCCC1(CCCC=CCCCOC(=O)N3CC[C@@](C(=O)N[C@@H](Cc4ccsc4)C(=O)N[C@@H](Cc4csc5ccccc45)C(=O)N[C@@H](CCC(N)=O)C(N)=O)(C3)NC(=O)[C@H](CC(C)C)NC(=O)[C@H](Cc3ccccc3)NC(=O)[C@H](C)NC(=O)[C@H](C)NC(=O)[C@H](CN(CC(=O)O)C(=O)Cc3c(F)c(F)c(F)c(F)c3F)NC(=O)[C@H](CC(=O)O)NC1=O)NC(=O)[C@H](CC(C)(C)C)NC(=O)[C@H](CC(=O)O)NC2=O` (stereo partly drawn) [I-2241, Ac-PL3-Asp-Npg-B5-Asp-[PfPhAc]GA-Ala-Ala-Phe-Leu-PyrS2-3Thi-BztA-Gln-NH2], the pIC50 in assay [1] was 4.75; in assay [2], 7.74.
For `CC(=O)N1CCC[C@]12CC=CCCCC1(CCCC=CCCCOC(=O)N3CC[C@@](C(=O)N[C@@H](Cc4ccsc4)C(=O)N[C@@H](Cc4csc5ccccc45)C(=O)N[C@@H](CCC(N)=O)C(N)=O)(C3)NC(=O)[C@H](CC(C)C)NC(=O)[C@H](Cc3ccccc3)NC(=O)[C@H](C)NC(=O)[C@H](C)NC(=O)[C@H](CN(CC(=O)O)C(=O)c3c(F)c(F)c(F)c(F)c3F)NC(=O)[C@H](CC(=O)O)NC1=O)NC(=O)[C@H](CC(C)(C)C)NC(=O)[C@H](CC(=O)O)NC2=O` (stereo partly drawn) [I-2242, Ac-PL3-Asp-Npg-B5-Asp-[PfBz]GA-Ala-Ala-Phe-Leu-PyrS2-3Thi-BztA-Gln-NH2] the same measures were 4.67 and 7.89.
On the same counts, the results for `CC(=O)N1CCC[C@]12CC=CCCCC1(CCCC=CCCCOC(=O)N3CC[C@@](C(=O)N[C@@H](Cc4ccsc4)C(=O)N[C@@H](Cc4csc5ccccc45)C(=O)N[C@@H](CCC(N)=O)C(N)=O)(C3)NC(=O)[C@H](CC(C)C)NC(=O)[C@H](Cc3ccccc3)NC(=O)[C@H](C)NC(=O)[C@H](C)NC(=O)[C@H](CCN(CC(=O)O)C(=O)CCCN(C)C)NC(=O)[C@H](CC(=O)O)NC1=O)NC(=O)[C@H](CC(C)(C)C)NC(=O)[C@H](CC(=O)O)NC2=O` (stereo partly drawn) [I-2243, Ac-PL3-Asp-Npg-B5-Asp-[NdiMeButC]GAbu-Ala-Ala-Phe-Leu-PyrS2-3Thi-BztA-Gln-NH2] are 4.60 and 7.82.
Regarding `CC(=O)N1CCC[C@]12CC=CCCCC1(CCCC=CCCCOC(=O)N3CC[C@@](C(=O)N[C@@H](Cc4ccsc4)C(=O)N[C@@H](Cc4csc5ccccc45)C(=O)N[C@@H](CCC(N)=O)C(N)=O)(C3)NC(=O)[C@H](CC(C)C)NC(=O)[C@H](Cc3ccccc3)NC(=O)[C@H](C)NC(=O)[C@H](C)NC(=O)[C@H](CCN(CC(=O)O)C(=O)C3CCN(C)CC3)NC(=O)[C@H](CC(=O)O)NC1=O)NC(=O)[C@H](CC(C)(C)C)NC(=O)[C@H](CC(=O)O)NC2=O` (stereo partly drawn) [I-2245, Ac-PL3-Asp-Npg-B5-Asp-[4AcMePip]GAbu-Ala-Ala-Phe-Leu-PyrS2-3Thi-BztA-Gln-NH2], the pIC50 in assay [1] is less than 4.70; in assay [2], 7.59.
For the compound `CC(=O)N1CCC[C@]12CC=CCCCC1(CCCC=CCCCOC(=O)N3CC[C@@](C(=O)N[C@@H](Cc4ccsc4)C(=O)N[C@@H](Cc4csc5ccccc45)C(=O)N[C@@H](CCC(N)=O)C(N)=O)(C3)NC(=O)[C@H](CC(C)C)NC(=O)[C@H](Cc3ccccc3)NC(=O)[C@H](C)NC(=O)[C@H](C)NC(=O)[C@H](CCN(CC(=O)O)C(=O)Cc3ccc(C(F)(F)F)cc3)NC(=O)[C@H](CC(=O)O)NC1=O)NC(=O)[C@H](CC(C)(C)C)NC(=O)[C@H](CC(=O)O)NC2=O` (stereo partly drawn) [I-2246, Ac-PL3-Asp-Npg-B5-Asp-[4CF3PhAc]GAbu-Ala-Ala-Phe-Leu-PyrS2-3Thi-BztA-Gln-NH2], the pIC50 in assay [1] was 4.89; in assay [2], 7.57.

Broadly, the pIC50 is the negative decadic logarithm of the IC50, by convention in mol/L.
